The structures appear in SMILES notation.

Kappa-type opioid receptor (Cavia porcellus, UniProt P41144), sequence (P41144 whole entry): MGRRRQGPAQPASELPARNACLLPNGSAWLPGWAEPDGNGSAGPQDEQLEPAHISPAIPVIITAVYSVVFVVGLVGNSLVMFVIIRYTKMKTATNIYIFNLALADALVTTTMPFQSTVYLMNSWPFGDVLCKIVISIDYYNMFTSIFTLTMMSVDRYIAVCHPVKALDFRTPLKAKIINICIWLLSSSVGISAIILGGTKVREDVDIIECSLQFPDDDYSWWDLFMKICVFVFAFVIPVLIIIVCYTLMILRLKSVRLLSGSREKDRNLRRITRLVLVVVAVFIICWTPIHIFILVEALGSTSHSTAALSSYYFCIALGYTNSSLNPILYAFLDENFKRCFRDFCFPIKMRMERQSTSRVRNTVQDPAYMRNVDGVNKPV
T3 sequence (P41145 whole entry): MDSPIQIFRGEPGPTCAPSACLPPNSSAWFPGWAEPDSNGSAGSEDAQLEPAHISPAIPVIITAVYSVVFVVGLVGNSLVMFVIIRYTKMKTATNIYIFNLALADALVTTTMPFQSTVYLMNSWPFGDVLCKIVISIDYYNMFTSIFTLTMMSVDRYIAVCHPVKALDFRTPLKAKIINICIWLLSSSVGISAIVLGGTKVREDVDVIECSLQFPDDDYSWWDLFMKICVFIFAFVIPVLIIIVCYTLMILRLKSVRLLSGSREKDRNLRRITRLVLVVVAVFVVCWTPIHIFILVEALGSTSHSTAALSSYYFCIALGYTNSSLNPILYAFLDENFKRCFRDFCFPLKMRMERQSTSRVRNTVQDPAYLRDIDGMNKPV
T2 sequence (P41143 whole entry): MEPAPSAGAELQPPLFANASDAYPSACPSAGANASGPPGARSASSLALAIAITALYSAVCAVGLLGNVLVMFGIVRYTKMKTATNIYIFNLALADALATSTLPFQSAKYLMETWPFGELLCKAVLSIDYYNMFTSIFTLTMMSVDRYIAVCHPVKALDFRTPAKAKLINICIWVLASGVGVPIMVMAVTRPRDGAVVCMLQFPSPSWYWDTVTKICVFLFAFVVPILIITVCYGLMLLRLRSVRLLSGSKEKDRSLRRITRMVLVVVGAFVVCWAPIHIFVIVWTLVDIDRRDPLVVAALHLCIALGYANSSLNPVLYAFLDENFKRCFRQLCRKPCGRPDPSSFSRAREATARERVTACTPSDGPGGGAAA
Mu-type opioid receptor (Mus musculus, UniProt P42866), sequence (P42866 whole entry): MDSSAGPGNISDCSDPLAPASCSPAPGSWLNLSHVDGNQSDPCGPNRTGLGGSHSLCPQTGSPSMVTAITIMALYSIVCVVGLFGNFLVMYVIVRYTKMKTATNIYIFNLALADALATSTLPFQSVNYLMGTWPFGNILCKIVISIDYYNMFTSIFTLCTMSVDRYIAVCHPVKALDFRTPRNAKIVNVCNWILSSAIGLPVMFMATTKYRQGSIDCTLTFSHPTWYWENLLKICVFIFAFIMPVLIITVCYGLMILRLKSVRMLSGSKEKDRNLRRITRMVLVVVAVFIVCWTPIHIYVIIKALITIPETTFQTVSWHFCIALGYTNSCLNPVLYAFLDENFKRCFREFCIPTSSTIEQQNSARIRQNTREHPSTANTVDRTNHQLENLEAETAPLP

In the first assay the target is Delta-type opioid receptor (Mus musculus, UniProt P32300). Description: Displacement of [3H]DPDPE from delta opioid receptor in mouse whole brain without cerebellum membrane.
Delta-type opioid receptor (Mus musculus, UniProt P32300), sequence (P32300 whole entry): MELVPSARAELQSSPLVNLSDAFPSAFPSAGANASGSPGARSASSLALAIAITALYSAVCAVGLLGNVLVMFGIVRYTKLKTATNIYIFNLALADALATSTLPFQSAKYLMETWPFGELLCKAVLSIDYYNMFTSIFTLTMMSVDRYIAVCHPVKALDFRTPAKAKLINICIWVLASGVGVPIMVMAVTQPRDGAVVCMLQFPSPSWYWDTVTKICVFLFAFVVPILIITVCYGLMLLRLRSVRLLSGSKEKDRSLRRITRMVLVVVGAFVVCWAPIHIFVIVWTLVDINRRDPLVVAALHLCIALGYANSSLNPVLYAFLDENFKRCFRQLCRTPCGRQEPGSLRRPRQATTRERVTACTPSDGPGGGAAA
The molecule `CN1CCC23c4cc(O)ccc4CC1C21CCC2C3[C@@H](CN2C(=O)c2ccccc2)O1` (stereo not given in full) came in with a Ki of 0.301 nM.

In the case of `C=CCN1CCC23c4cc(O)ccc4CC1C21CCC2C3[C@@H](CN2C(=O)c2ccccc2)O1` (stereo not given in full), the inhibitory constant (Ki) was 0.109 nM.

`COCCCN1CCC23c4cc(O)ccc4CC1C21CCC2C3[C@@H](CN2C(=O)c2ccccc2)O1` (stereo not given in full) came in with a Ki of 0.368 nM.

The molecule `CC(C)CN1CCC23c4cc(O)ccc4CC1C21CCC2C3[C@@H](CN2C(=O)c2ccccc2)O1` (stereo not given in full) registered an inhibitory constant (Ki) of 0.76 nM.

A further assay has as its target Mu-type opioid receptor (Mus musculus, UniProt P42866). Description: Displacement of [3H]DAMGO from mu opioid receptor in mouse whole brain without cerebellum membrane.
Molecule `CN1CCC23c4cc(O)ccc4CC1C21CCC2C3[C@@H](CN2C(=O)c2ccccc2)O1` (stereo not given in full) showed a Ki of 0.383 nM.

`C=CCN1CCC23c4cc(O)ccc4CC1C21CCC2C3[C@@H](CN2C(=O)c2ccccc2)O1` (stereo not given in full) came in with a Ki of 0.833 nM.

Molecule `COCCCN1CCC23c4cc(O)ccc4CC1C21CCC2C3[C@@H](CN2C(=O)c2ccccc2)O1` (stereo not given in full) registered a Ki of 3.94 nM.

Molecule `CC(C)CN1CCC23c4cc(O)ccc4CC1C21CCC2C3[C@@H](CN2C(=O)c2ccccc2)O1` (stereo not given in full) returned a Ki of 4.48 nM.

Test system in the next assay: not listed separately
Description: Selectivity ratio of Ki for kappa opioid receptor in guinea pig cerebellum membrane to Ki for delta opioid receptor in mouse whole brain without cerebellum. The assay is classed as cell membranes.
Consider `CN1CCC23c4cc(O)ccc4CC1C21CCC2C3[C@@H](CN2C(=O)c2ccccc2)O1` (stereo not given in full), for which the Ratio Ki is 104.

As to `C=CCN1CCC23c4cc(O)ccc4CC1C21CCC2C3[C@@H](CN2C(=O)c2ccccc2)O1` (stereo not given in full), the Ratio Ki worked out at 23.

On to `COCCCN1CCC23c4cc(O)ccc4CC1C21CCC2C3[C@@H](CN2C(=O)c2ccccc2)O1` (stereo not given in full), for which the Ratio Ki is 55.

On to `CC(C)CN1CCC23c4cc(O)ccc4CC1C21CCC2C3[C@@H](CN2C(=O)c2ccccc2)O1` (stereo not given in full), for which the Ratio Ki was determined as 8.2.

The species entered for a further assay is Mus musculus. Description: Selectivity ratio of Ki for mu opioid receptor in mouse whole brain without cerebellum to Ki for delta opioid receptor in mouse whole brain without cerebellum.
As to `CN1CCC23c4cc(O)ccc4CC1C21CCC2C3[C@@H](CN2C(=O)c2ccccc2)O1` (stereo not given in full), the Ratio Ki amounted to 1.3.

As for `C=CCN1CCC23c4cc(O)ccc4CC1C21CCC2C3[C@@H](CN2C(=O)c2ccccc2)O1` (stereo not given in full), the Ratio Ki was determined as 7.6.

`COCCCN1CCC23c4cc(O)ccc4CC1C21CCC2C3[C@@H](CN2C(=O)c2ccccc2)O1` (stereo not given in full): the Ratio Ki came out at 11.

Take `CC(C)CN1CCC23c4cc(O)ccc4CC1C21CCC2C3[C@@H](CN2C(=O)c2ccccc2)O1` (stereo not given in full): the Ratio Ki stood at 5.9.

Another assay addresses Kappa-type opioid receptor (Cavia porcellus, UniProt P41144). Kind of assay: Displacement of [3H]U-69,593 from kappa opioid receptor in guinea pig cerebellum membrane. The assay is classed as cell membranes. A general note: Displacement assays read how much labelled ligand stays bound in the presence of the test substance.
On to `CN1CCC23c4cc(O)ccc4CC1C21CCC2C3[C@@H](CN2C(=O)c2ccccc2)O1` (stereo not given in full), for which the Ki was 31.3 nM.

As for `C=CCN1CCC23c4cc(O)ccc4CC1C21CCC2C3[C@@H](CN2C(=O)c2ccccc2)O1` (stereo not given in full), the Ki worked out at 2.54 nM.

As for `COCCCN1CCC23c4cc(O)ccc4CC1C21CCC2C3[C@@H](CN2C(=O)c2ccccc2)O1` (stereo not given in full), the affinity, expressed as Ki, was 20.3 nM.

Regarding `CC(C)CN1CCC23c4cc(O)ccc4CC1C21CCC2C3[C@@H](CN2C(=O)c2ccccc2)O1` (stereo not given in full), the Ki came out at 6.25 nM.

The target of another assay is T1, Mu-type opioid receptor (Homo sapiens, UniProt P35372). Kind of assay: Agonist activity at human mu opioid receptor expressed in CHO cells assessed as inhibition of forskolin-induced cAMP accumulation after 30 mins by Eu-cAMP tracer based TR-FRET assay. Type of assay: functional, cell-based. A general note: Changes in cAMP serve as a functional read-out for many G protein-coupled receptors.
T1 sequence (P35372 whole entry): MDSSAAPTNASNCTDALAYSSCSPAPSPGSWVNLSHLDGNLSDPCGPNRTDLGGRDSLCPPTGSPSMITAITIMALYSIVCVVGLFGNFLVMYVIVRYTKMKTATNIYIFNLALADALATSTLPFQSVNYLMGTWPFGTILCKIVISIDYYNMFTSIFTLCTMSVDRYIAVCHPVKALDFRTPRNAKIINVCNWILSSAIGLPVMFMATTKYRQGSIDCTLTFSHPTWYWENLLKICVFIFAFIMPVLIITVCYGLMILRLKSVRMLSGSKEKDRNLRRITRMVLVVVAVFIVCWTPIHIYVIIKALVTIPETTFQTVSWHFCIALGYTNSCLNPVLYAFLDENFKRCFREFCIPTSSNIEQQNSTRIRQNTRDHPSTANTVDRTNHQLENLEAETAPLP
On to `CN1CCC23c4cc(O)ccc4CC1C21CCC2C3[C@@H](CN2C(=O)c2ccccc2)O1` (stereo not given in full), for which the EC50 was found to be 5.9 nM.

`COCCCN1CCC23c4cc(O)ccc4CC1C21CCC2C3[C@@H](CN2C(=O)c2ccccc2)O1` (stereo not given in full): the EC50 worked out at 22 nM.

Another assay concerns the target T2, Delta-type opioid receptor (Homo sapiens, UniProt P41143). Description: Agonist activity at human delta opioid receptor expressed in CHO cells assessed as inhibition of forskolin-induced cAMP accumulation after 30 mins by Eu-cAMP tracer based TR-FRET assay. Type of assay: functional, cell-based.
With `CN1CCC23c4cc(O)ccc4CC1C21CCC2C3[C@@H](CN2C(=O)c2ccccc2)O1` (stereo not given in full), the EC50 worked out at 0.43 nM.

As for `C=CCN1CCC23c4cc(O)ccc4CC1C21CCC2C3[C@@H](CN2C(=O)c2ccccc2)O1` (stereo not given in full), the EC50 is 0.43 nM.

With `COCCCN1CCC23c4cc(O)ccc4CC1C21CCC2C3[C@@H](CN2C(=O)c2ccccc2)O1` (stereo not given in full), the EC50 turned out to be 1.4 nM.

On to `CC(C)CN1CCC23c4cc(O)ccc4CC1C21CCC2C3[C@@H](CN2C(=O)c2ccccc2)O1` (stereo not given in full), for which the EC50 is 3 nM.

A further assay addresses T3, Kappa-type opioid receptor (Homo sapiens, UniProt P41145). Kind of assay: Agonist activity at human kappa opioid receptor expressed in CHO cells assessed as inhibition of forskolin-induced cAMP accumulation after 30 mins by Eu-cAMP tracer based TR-FRET assay. Type of assay: functional, cell-based.
Consider `CN1CCC23c4cc(O)ccc4CC1C21CCC2C3[C@@H](CN2C(=O)c2ccccc2)O1` (stereo not given in full), for which the EC50 was 50 nM.

Consider `CC(C)CN1CCC23c4cc(O)ccc4CC1C21CCC2C3[C@@H](CN2C(=O)c2ccccc2)O1` (stereo not given in full), for which the EC50 was 98 nM.

The next assay addresses T1, Mu-type opioid receptor. Description: Agonist activity at human mu opioid receptor expressed in CHO cells assessed as inhibition of forskolin-induced cAMP accumulation at 10 uM after 30 mins by Eu-cAMP tracer based TR-FRET assay relative to DAMGO. The assay is classed as functional, cell-based.
As to `C=CCN1CCC23c4cc(O)ccc4CC1C21CCC2C3[C@@H](CN2C(=O)c2ccccc2)O1` (stereo not given in full), the Emax came to 2.2%.

Consider `CC(C)CN1CCC23c4cc(O)ccc4CC1C21CCC2C3[C@@H](CN2C(=O)c2ccccc2)O1` (stereo not given in full), for which the Emax came to 15%.

A further assay has as its target T2, Delta-type opioid receptor. Description: Agonist activity at human delta opioid receptor expressed in CHO cells assessed as inhibition of forskolin-induced cAMP accumulation after 30 mins by Eu-cAMP tracer based TR-FRET assay relative to SNC80. Type of assay: functional, cell-based.
With `CN1CCC23c4cc(O)ccc4CC1C21CCC2C3[C@@H](CN2C(=O)c2ccccc2)O1` (stereo not given in full), the maximal response (Emax) stood at 94%.

`C=CCN1CCC23c4cc(O)ccc4CC1C21CCC2C3[C@@H](CN2C(=O)c2ccccc2)O1` (stereo not given in full): the Emax is 73%.

On to `COCCCN1CCC23c4cc(O)ccc4CC1C21CCC2C3[C@@H](CN2C(=O)c2ccccc2)O1` (stereo not given in full), for which the Emax was found to be 120%.

For `CC(C)CN1CCC23c4cc(O)ccc4CC1C21CCC2C3[C@@H](CN2C(=O)c2ccccc2)O1` (stereo not given in full), the Emax was 99%.

A further assay deals with T3, Kappa-type opioid receptor. Description: Agonist activity at human kappa opioid receptor expressed in CHO cells assessed as inhibition of forskolin-induced cAMP accumulation at 10 uM after 30 mins by Eu-cAMP tracer based TR-FRET assay relative to U-69,593. The assay is classed as functional, cell-based.
Take `C=CCN1CCC23c4cc(O)ccc4CC1C21CCC2C3[C@@H](CN2C(=O)c2ccccc2)O1` (stereo not given in full): the Emax stood at 4.2%.

In the case of `COCCCN1CCC23c4cc(O)ccc4CC1C21CCC2C3[C@@H](CN2C(=O)c2ccccc2)O1` (stereo not given in full), the maximal response (Emax) amounted to 23%.

Another assay addresses T3, Kappa-type opioid receptor. Kind of assay: Agonist activity at human kappa opioid receptor expressed in CHO cells assessed as inhibition of forskolin-induced cAMP accumulation after 30 mins by Eu-cAMP tracer based TR-FRET assay relative to U-69,593. Type of assay: functional, cell-based.
For `CN1CCC23c4cc(O)ccc4CC1C21CCC2C3[C@@H](CN2C(=O)c2ccccc2)O1` (stereo not given in full), the Emax turned out to be 96%.

Consider `CC(C)CN1CCC23c4cc(O)ccc4CC1C21CCC2C3[C@@H](CN2C(=O)c2ccccc2)O1` (stereo not given in full), for which the Emax worked out at 19%.

For the next assay, the target named is T1, Mu-type opioid receptor. Kind of assay: Agonist activity at human mu opioid receptor expressed in CHO cells assessed as inhibition of forskolin-induced cAMP accumulation after 30 mins by Eu-cAMP tracer based TR-FRET assay relative to DAMGO. Type of assay: functional, cell-based.
On to `CN1CCC23c4cc(O)ccc4CC1C21CCC2C3[C@@H](CN2C(=O)c2ccccc2)O1` (stereo not given in full), for which the Emax was determined as 103%.

`COCCCN1CCC23c4cc(O)ccc4CC1C21CCC2C3[C@@H](CN2C(=O)c2ccccc2)O1` (stereo not given in full): the Emax came out at 55%.

The Ki is a measure of affinity in units of concentration, obtained from inhibition or displacement. The low end stands for tighter binding, the high end for weaker binding. As usually defined, the EC50 is the concentration at which the effect is half-maximal. A word on the Emax: it is the maximal effect, on the per cent scale that the assay sets.

The values are drawn from ChEMBL document CHEMBL4033703, “Novel delta opioid receptor agonists with oxazatricyclodecane structure showing potent agonistic activities” (Bioorg Med Chem Lett, 2017).
